# Reference: US10206937B2, “Boronic acid derivatives and therapeutic uses thereof” (Qpex Biopharma, Inc., priority 2014, dated 2019)
# Test system: strains of Enterobacteriaceae producing various carbapenemases (class A, D and B; 104 strains)
# Test: Antibiotics potentiation by Compound 27 (MIC; meropenem, doripenem, ertapenem, cefepime)
# Assay type: cell-based
# Conditions: + 27 = with Compound 27 at fixed 4 μg/ml
structure (smiles),measurement,setting,value
C[C@@H](O)[C@H]1C(=O)N2C(C(=O)O)=C(S[C@@H]3CN[C@H](CNS(N)(=O)=O)C3)[C@H](C)[C@H]12 [D],MIC,strain CF1012 Citrobacter freundii (KPC-2),Y (MIC of 1 μg/mL to 10 μg/mL)
same,MIC,strain CF1021 Citrobacter freundii (CMY-type; VIM-1),Y (MIC of 1 μg/mL to 10 μg/mL)
same,MIC,"strain CF1022 Citrobacter freundii (SHV-12(2be), TEM-OSBL(2b); IMP-8)",Y (MIC of 1 μg/mL to 10 μg/mL)
same,MIC,"strain CF1023 Citrobacter freundii (SHV-12(2be), TEM-OSBL(2b); CTX-M-3; CMY-34; NDM-1)",Z (MIC of greater than 10 μg/mL)
same,MIC,strain CL1080 Enterobacter cloacae (IMP-1),X (MIC of less than 1 μg/mL)
same,MIC,"strain EA1019 Enterobacter aerogenes (SHV-5, VIM-1)",Z (MIC of greater than 10 μg/mL)
same,MIC,strain EC1007 Escherichia coli (KPC-3),X (MIC of less than 1 μg/mL)
same,MIC,"strain EC1061 Escherichia coli (NDM-1, CMY-6)",Z (MIC of greater than 10 μg/mL)
same,MIC,"strain EC1062 Escherichia coli (OXA-48, CTX-M-15)",X (MIC of less than 1 μg/mL)
same,MIC,"strain EC1064 Escherichia coli (NDM-1, CMY-6, CTX-M-15)",Z (MIC of greater than 10 μg/mL)
same,MIC,strain EC1065 Escherichia coli (IMP-1),Y (MIC of 1 μg/mL to 10 μg/mL)
same,MIC,strain EC1068 Escherichia coli (VIM-1),Z (MIC of greater than 10 μg/mL)
same,MIC,strain EC1069 Escherichia coli (CTX-M-27; NDM-1),Z (MIC of greater than 10 μg/mL)
same,MIC,strain EC1070 Escherichia coli (TEM-OSBL(2b); CMY-42; NDM-5),Z (MIC of greater than 10 μg/mL)
same,MIC,strain EC1072 Escherichia coli (CTX-M-3; NDM-1),Z (MIC of greater than 10 μg/mL)
same,MIC,strain ECL1004 Enterobacter cloacae (NMC-A),Y (MIC of 1 μg/mL to 10 μg/mL)
same,MIC,"strain ECL1026 Enterobacter cloacae (KPC-2, TEM-1)",Y (MIC of 1 μg/mL to 10 μg/mL)
same,MIC,"strain ECL1036 Enterobacter cloacae (KPC-3, TEM-1)",Y (MIC of 1 μg/mL to 10 μg/mL)
same,MIC,strain ECL1045 Enterobacter cloacae (VIM-1),Y (MIC of 1 μg/mL to 10 μg/mL)
same,MIC,"strain ECL1055 Enterobacter cloacae (KPC-3, TEM)",Y (MIC of 1 μg/mL to 10 μg/mL)
same,MIC,"strain ECL1057 Enterobacter cloacae (NDM-1, TEM-1, CTX-M-15)",Z (MIC of greater than 10 μg/mL)
same,MIC,"strain ECL1058 Enterobacter cloacae (KPC-3, SHV-11, TEM-1)",Z (MIC of greater than 10 μg/mL)
same,MIC,"strain ECL1059 Enterobacter cloacae (KPC-3, SHV-12, TEM-1)",Y (MIC of 1 μg/mL to 10 μg/mL)
same,MIC,"strain ECL1061 Enterobacter cloacae (KPC-3, Hyper AmpC expression)",Y (MIC of 1 μg/mL to 10 μg/mL)
same,MIC,strain ECL1082 Enterobacter cloacae (VIM-1),Z (MIC of greater than 10 μg/mL)
same,MIC,strain ECL1084 Enterobacter cloacae (CTX-M-15; ACT-16; NDM-1),Z (MIC of greater than 10 μg/mL)
same,MIC,"strain ECL1085 Enterobacter cloacae (SHV-31(2be), TEM-1(2b); CTX-M-15; NDM-1)",Z (MIC of greater than 10 μg/mL)
same,MIC,"strain ECL1086 Enterobacter cloacae (VIM-31, OXA-48(c))",Y (MIC of 1 μg/mL to 10 μg/mL)
same,MIC,strain ECL1087 Enterobacter cloacae (VIM-1),Z (MIC of greater than 10 μg/mL)
same,MIC,strain ECL1088 Enterobacter cloacae (TEM-1(2b); CTX-M-14; ACT-type; VIM-1),Z (MIC of greater than 10 μg/mL)
same,MIC,strain ECL1089 Enterobacter cloacae (ACT-type; IMP-1),Z (MIC of greater than 10 μg/mL)
same,MIC,strain ECL1090 Enterobacter cloacae (TEM-1(2b); CTX-M-22; ACT-type; IMP-8),Y (MIC of 1 μg/mL to 10 μg/mL)
same,MIC,strain ECL1091 Enterobacter cloacae (VIM-1),Z (MIC of greater than 10 μg/mL)
same,MIC,strain ECL1092 Enterobacter cloacae (TEM-OSBL(2b); ACT-32; VIM-1),Y (MIC of 1 μg/mL to 10 μg/mL)
same,MIC,strain ECL1093 Enterobacter cloacae (TEM-OSBL(2b); ACT-32; VIM-1),Y (MIC of 1 μg/mL to 10 μg/mL)
same,MIC,strain ECL1094 Enterobacter cloacae (VIM-1),Z (MIC of greater than 10 μg/mL)
same,MIC,"strain ECL1096 Enterobacter cloacae (CMY-4, VIM-4, OXA-48(c))",Y (MIC of 1 μg/mL to 10 μg/mL)
same,MIC,"strain ECL1097 Enterobacter cloacae (SHV-31(2be), TEM-OSBL(2b); CTX-M-15; ACT-31; NDM-1)",Z (MIC of greater than 10 μg/mL)
same,MIC,strain ECL1098 Enterobacter cloacae (TEM-OSBL(2b); DHA-1; ACT-16; NDM-1),Z (MIC of greater than 10 μg/mL)
same,MIC,strain KP1001 Klebsiella pneumoniae (KPC TEM SHV),Z (MIC of greater than 10 μg/mL)
same,MIC,strain KP1002 Klebsiella pneumoniae (KPC TEM SHV),Y (MIC of 1 μg/mL to 10 μg/mL)
same,MIC,strain KP1003 Klebsiella pneumoniae (KPC TEM SHV),Y (MIC of 1 μg/mL to 10 μg/mL)
same,MIC,"strain KP1004 Klebsiella pneumoniae (KPC-2, TEM-1, SHV-11)",Y (MIC of 1 μg/mL to 10 μg/mL)
same,MIC,strain KP1008 Klebsiella pneumoniae (KPC-2),X (MIC of less than 1 μg/mL)
same,MIC,"strain KP1014 Klebsiella pneumoniae (VIM-1, TEM, SHV)",Z (MIC of greater than 10 μg/mL)
same,MIC,"strain KP1054 Klebsiella pneumoniae (VIM-1, SHV-11)",Z (MIC of greater than 10 μg/mL)
same,MIC,"strain KP1059 Klebsiella pneumoniae (VIM-1, SHV-11)",Z (MIC of greater than 10 μg/mL)
same,MIC,"strain KP1061 Klebsiella pneumoniae (KPC-3, SHV-11, TEM-1)",Z (MIC of greater than 10 μg/mL)
same,MIC,"strain KP1064 Klebsiella pneumoniae (KPC-2, SHV-11, TEM-1)",Z (MIC of greater than 10 μg/mL)
same,MIC,"strain KP1065 Klebsiella pneumoniae (VIM-1, SHV-11)",Y (MIC of 1 μg/mL to 10 μg/mL)
same,MIC,"strain KP1070 Klebsiella pneumoniae (KPC-2, SHV-11, TEM-1)",Y (MIC of 1 μg/mL to 10 μg/mL)
same,MIC,"strain KP1074 Klebsiella pneumoniae (KPC-3, SHV-11, TEM)",Z (MIC of greater than 10 μg/mL)
